According to PubChem BioAssay AID248 (DTP/NCI, 2004):
Values joined by “and” are separate entries in the source; they are usually repeats but may differ in a detail not shown here. Equal entries are not always repeated. Toxic doses and inconclusive results are not listed. Cut-off read from the data, not from the text of the source: active = T/C of 150% or more; inactive = T/C below 125%.

System: L1210 leukemia ip in BDF1 mice, survival T/C
Assay: NCI In Vivo Anticancer Drug Screen. Data for tumor model L1210 Leukemia (intraperitoneal) in B6D2F1 (BDF1) mice
Settings: endpoint: mean survival time, higher = longer survival
Method in brief: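 Value reflects the ratio of survival in compound-treated mice to survival in vehicle-treated controls, with both groups carrying the same transplanted tumor.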

[1] = dose: 100.0 mg/kg/injection, schedule: Q04DX003 (ip), vehicle: saline

Measured: T/C

Cn1c(N)cc(=O)n(C)c1=O
inactive: dose: 100.0 mg/kg/injection, schedule: Q01DX001 (ip), vehicle: Klucel (hydroxypropylcellulose) (HPC) 112 % of control | dose: 200.0 mg/kg/injection, schedule: Q01DX001 (ip), vehicle: Klucel (hydroxypropylcellulose) (HPC) 107 % of control | dose: 400.0 mg/kg/injection, schedule: Q01DX001 (ip), vehicle: Klucel (hydroxypropylcellulose) (HPC) 109 % of control

CC(C)/[N+]([O-])=C/C=C/c1ccccc1
inactive: dose: 100.0 mg/kg/injection, schedule: Q04DX003 (ip), vehicle: Klucel (hydroxypropylcellulose) (HPC) 96 % of control | dose: 200.0 mg/kg/injection, schedule: Q04DX003 (ip), vehicle: Klucel (hydroxypropylcellulose) (HPC) 97 % of control | dose: 400.0 mg/kg/injection, schedule: Q04DX003 (ip), vehicle: Klucel (hydroxypropylcellulose) (HPC) 100 % of control

CC1(C)C2CCC(C2)C12CC(F)(F)C(F)(F)S2 (configuration not stated)
inactive: dose: 12.5 mg/kg/injection, schedule: Q01DX009 (ip), vehicle: saline with Tween-80 97 % of control | dose: 25.0 mg/kg/injection, schedule: Q01DX009 (ip), vehicle: saline with Tween-80 100 % of control | dose: 25.0 mg/kg/injection, schedule: Q04DX003 (ip), vehicle: saline with Tween-80 101 % of control | dose: 50.0 mg/kg/injection, schedule: Q04DX003 (ip), vehicle: saline with Tween-80 101 % of control | dose: 100.0 mg/kg/injection, schedule: Q04DX003 (ip), vehicle: saline with Tween-80 103 % of control

CC(=O)Nc1ncnc2n[nH]c(C#N)c12
inactive: dose: 50.0 mg/kg/injection, schedule: Q01DX005 (ip), vehicle: saline with Tween-80 108 % of control | dose: 100.0 mg/kg/injection, schedule: Q01DX005 (ip), vehicle: saline with Tween-80 106 % of control

O=C(Cc1ccccn1)c1ccccn1
inactive: dose: 100.0 mg/kg/injection, schedule: Q01DX001 (ip), vehicle: saline 98 % of control | [1] 100 % of control | dose: 200.0 mg/kg/injection, schedule: Q01DX001 (ip), vehicle: saline 117 % of control | dose: 200.0 mg/kg/injection, schedule: Q04DX003 (ip), vehicle: saline 102 % of control | dose: 400.0 mg/kg/injection, schedule: Q01DX001 (ip), vehicle: saline 119 % of control | dose: 400.0 mg/kg/injection, schedule: Q04DX003 (ip), vehicle: saline 98 % of control

CCOc1ccc(NC(=O)Oc2ccc(SC)c(C)c2)cc1
inactive: dose: 100.0 mg/kg/injection, schedule: Q01DX009 (ip), vehicle: Klucel (hydroxypropylcellulose) (HPC) 91 % of control | dose: 200.0 mg/kg/injection, schedule: Q01DX009 (ip), vehicle: Klucel (hydroxypropylcellulose) (HPC) 91 % of control | dose: 400.0 mg/kg/injection, schedule: Q01DX009 (ip), vehicle: Klucel (hydroxypropylcellulose) (HPC) 96 % of control

COC(=O)C1(C)CCCC2(C)c3cc(O)c(C(C)C)cc3CCC12 (configuration not stated)
inactive: dose: 100.0 mg/kg/injection, schedule: Q01DX001 (ip), vehicle: acetone 88 % of control | dose: 200.0 mg/kg/injection, schedule: Q01DX001 (ip), vehicle: acetone 90 % of control | dose: 400.0 mg/kg/injection, schedule: Q01DX001 (ip), vehicle: acetone 93 % of control

COc1ccccc1OC(=O)Nc1ccccc1F
inactive: dose: 100.0 mg/kg/injection, schedule: Q01DX009 (ip), vehicle: saline with Tween-80 97 % of control | dose: 200.0 mg/kg/injection, schedule: Q01DX009 (ip), vehicle: saline with Tween-80 96 % of control | dose: 400.0 mg/kg/injection, schedule: Q01DX009 (ip), vehicle: saline with Tween-80 118 % of control

COc1cccc(CC2=NCCc3cc(OC)c(OC)cc32)c1
inactive: dose: 25.0 mg/kg/injection, schedule: Q01DX009 (ip), vehicle: saline 103 % of control | dose: 50.0 mg/kg/injection, schedule: Q01DX009 (ip), vehicle: saline 101 % of control | dose: 100.0 mg/kg/injection, schedule: Q01DX009 (ip), vehicle: saline 97 % of control | [1] 98 % of control

CCOC(=O)CNc1cccc(C)c1C
inactive: dose: 100.0 mg/kg/injection, schedule: Q04DX002 (ip), vehicle: Klucel (hydroxypropylcellulose) (HPC) 100 % of control | dose: 200.0 mg/kg/injection, schedule: Q04DX002 (ip), vehicle: Klucel (hydroxypropylcellulose) (HPC) 102 % of control | dose: 400.0 mg/kg/injection, schedule: Q04DX002 (ip), vehicle: Klucel (hydroxypropylcellulose) (HPC) 100 % of control

CCCCOc1ccc(O)cc1
inactive: dose: 100.0 mg/kg/injection, schedule: Q04DX003 (ip), vehicle: other 117 % of control | dose: 200.0 mg/kg/injection, schedule: Q04DX003 (ip), vehicle: other 100 % of control | dose: 400.0 mg/kg/injection, schedule: Q04DX003 (ip), vehicle: other 108 % of control

CCCCOC(=O)c1ccc(OC(=O)Nc2ccc(C)cc2[N+](=O)[O-])cc1
inactive: dose: 50.0 mg/kg/injection, schedule: Q01DX009 (ip), vehicle: saline + alcohol 97 % of control | dose: 100.0 mg/kg/injection, schedule: Q01DX009 (ip), vehicle: saline + alcohol 123 % of control | dose: 200.0 mg/kg/injection, schedule: Q01DX009 (ip), vehicle: saline + alcohol 103 % of control

CN(C)S(=O)(=O)c1ccc(CC(O)(c2ccccc2)c2ccccc2)cc1
inactive: dose: 88.8 mg/kg/injection, schedule: Q01DX001 (ip), vehicle: carboxymethylcellulose (CMC) 105 % of control and 91 % of control | dose: 100.0 mg/kg/injection, schedule: Q01DX001 (ip), vehicle: carboxymethylcellulose (CMC) 98 % of control | dose: 133.0 mg/kg/injection, schedule: Q01DX001 (ip), vehicle: carboxymethylcellulose (CMC) 120 % of control and 91 % of control | dose: 200.0 mg/kg/injection, schedule: Q01DX001 (ip), vehicle: carboxymethylcellulose (CMC) 96 % of control and 109 % of control | dose: 300.0 mg/kg/injection, schedule: Q01DX001 (ip), vehicle: carboxymethylcellulose (CMC) 93 % of control and 97 % of control | dose: 400.0 mg/kg/injection, schedule: Q01DX001 (ip), vehicle: carboxymethylcellulose (CMC) 104 % of control
